Series [1] relates to Monochoria vaginalis, Presl. Description: Preemergence weed control under flooded paddy conditions, MOOVA (Monochoria). Also: meaning of each grade not given here. The note with it: preemergence, flooded paddy, rated three to four weeks after treatment. Type of series: in vivo.
Another series has as its system Sagittaria pygmaea, L. As to the kind of experiment: Preemergence weed control under flooded paddy conditions, SAGPY (Arrowhead (Pygmaea)). Also: meaning of each grade not given here. Type of series: in vivo. The note with it: preemergence, flooded paddy, rated three to four weeks after treatment.
The test system of series [2] is Cyperus serotinus, Rottb. Description: Preemergence weed control under flooded paddy conditions, CYPSE (Flatsedge). Also: meaning of each grade not given here. Type of series: in vivo. The note with it: preemergence, rated three to four weeks after treatment.
The test system of series [3] is Echinochloa oryzoides (Ard.) Fritsch. Description: Preemergence weed control under flooded paddy conditions, ECHORC (Watergrass (Calif.)). Also: meaning of each grade not given here. Type of series: in vivo. The note with it: preemergence, flooded paddy, rated three to four weeks after treatment.
Series [4] has as its system Oryza sativa, (L.) Tebonnet. Description: Rice tolerance to post-transplant applications under flooded paddy conditions (Example 187), ORYSAT (Rice, Tebonnet). Particulars: rated three to four weeks after treatment.
The test system of a further series is Cyperus iria. As to the kind of experiment: Preemergence weed control under flooded paddy conditions, CYPIR (Rice Flatsedge). Also: meaning of each grade not given here. Type of series: in vivo. The note with it: preemergence, flooded paddy, rated three to four weeks after treatment.

Take `Cn1c(C(F)(F)F)cc(=O)n(-c2ccc3onc(-c4ccccc4)c3c2)c1=O` [Example 25, 1-Methyl-3-(3-phenyl-1,2-benzisoxazol-5-yl)-6-(trifluoromethyl)-2,4(1H,3H)-pyrimidinedione]: the “herbicidal effect rating, MOOVA” value in series [1] (0.0313 kg/ha), in series [1] (0.0625 kg/ha), in series [1] (0.1250 kg/ha) and in series [1] (0.2500 kg/ha) was 9.0 each time. Moreover, the “herbicidal effect rating, SAGPY” value in the series with Sagittaria pygmaea, L. (0.0313 kg/ha) is reported as 0.0; in the series with Sagittaria pygmaea, L. (0.0625 kg/ha), 0.0; with Sagittaria pygmaea, L. (0.1250 kg/ha), 1.0; with Sagittaria pygmaea, L. (0.2500 kg/ha) it was 4.0. Further, the “herbicidal effect rating, CYPSE” value in series [2] (0.0313 kg/ha) turned out to be 0.0; in series [2] (0.0625 kg/ha), 2.0; in series [2] (0.1250 kg/ha) it was 7.0; in series [2] (0.2500 kg/ha), 8.0. The “herbicidal effect rating, ECHORC” value in series [3] (0.0313 kg/ha) amounted to 7.0; in series [3] (0.0625 kg/ha), 9.0; in series [3] (0.1250 kg/ha) it was 9.0; in series [3] (0.2500 kg/ha) it was 9.0. The “herbicidal effect rating, ORYSAT (rice tolerance)” value (from here on “herbicidal effect rating, ORYSAT”) in series [4] (0.0313 kg/ha) is 4.0; in series [4] (0.0625 kg/ha), 6.0; in series [4] (0.1250 kg/ha) it was 7.0; in series [4] (0.2500 kg/ha), 7.0. In addition, the “herbicidal effect rating, CYPIR” value in the series on Cyperus iria (0.0313 kg/ha), in the series on Cyperus iria (0.0625 kg/ha), in the series on Cyperus iria (0.1250 kg/ha) and with Cyperus iria (0.2500 kg/ha) was 9.0 each time.

For the molecule `COC(=O)COc1c(C)cc(C)cc1-c1nsc2ccc(-n3c(=O)cc(C(F)(F)F)n(C)c3=O)cc12` [Example 26, Methyl {{6-{5-[3,6-dihydro-3-methyl-2,6-dioxo-4-(trifluoromethyl)-1(2H)-pyrimidinyl]-1,2-benzisothiazol-3-yl}-2,4-xylyl}oxy}acetate], the “herbicidal effect rating, MOOVA” value in series [1] (0.0313 kg/ha), in series [1] (0.0625 kg/ha), in series [1] (0.1250 kg/ha) and in series [1] (0.2500 kg/ha) was 9.0 each time. Further, the “herbicidal effect rating, SAGPY” value in the series on Sagittaria pygmaea, L. (0.0313 kg/ha) is 0.0; in the series on Sagittaria pygmaea, L. (0.0625 kg/ha), 0.0; in the series with Sagittaria pygmaea, L. (0.1250 kg/ha) it was 2.0; in the series with Sagittaria pygmaea, L. (0.2500 kg/ha), 9.0. The “herbicidal effect rating, CYPSE” value in series [2] (0.0313 kg/ha) was 0.0; in series [2] (0.0625 kg/ha), 4.0; in series [2] (0.1250 kg/ha) it was 2.0; in series [2] (0.2500 kg/ha), 9.0. The “herbicidal effect rating, ECHORC” value is 7.0 in series [3] (0.0313 kg/ha), 9.0 in series [3] (0.0625 kg/ha), 9.0 in series [3] (0.1250 kg/ha) and 9.0 in series [3] (0.2500 kg/ha). Besides, the “herbicidal effect rating, ORYSAT” value in series [4] (0.0313 kg/ha) was 3.0; in series [4] (0.0625 kg/ha) it was 4.0; in series [4] (0.1250 kg/ha), 6.0; in series [4] (0.2500 kg/ha), 9.0. The “herbicidal effect rating, CYPIR” value in the series on Cyperus iria (0.0313 kg/ha) was found to be 6.0; with Cyperus iria (0.0625 kg/ha) it was 8.0; in the series on Cyperus iria (0.1250 kg/ha), 9.0; with Cyperus iria (0.2500 kg/ha), 9.0.

With `COC(=O)C(C)Oc1c(C)cc(C)cc1-c1nsc2ccc(-n3c(=O)cc(C(F)(F)F)n(C)c3=O)cc12` (stereo not drawn) [Example 27, Methyl 2-{{6-{5-[3,6-dihydro-3-methyl-2,6-dioxo-4-(trifluoromethyl)-1(2H)-pyrimidinyl]-1,2-benzisothiazol-3-yl}-2,4-xylyl}oxy}propionate], the “herbicidal effect rating, MOOVA” value in series [1] (0.0313 kg/ha) stood at 8.0; in series [1] (0.0625 kg/ha), 9.0; in series [1] (0.1250 kg/ha), 9.0; in series [1] (0.2500 kg/ha), 9.0. Also, the “herbicidal effect rating, SAGPY” value with Sagittaria pygmaea, L. (0.0313 kg/ha) is given as 0.0; with Sagittaria pygmaea, L. (0.0625 kg/ha), 0.0; with Sagittaria pygmaea, L. (0.1250 kg/ha), 2.0; in the series on Sagittaria pygmaea, L. (0.2500 kg/ha), 4.0. Moreover, the “herbicidal effect rating, CYPSE” value in series [2] (0.0313 kg/ha) turned out to be 0.0; in series [2] (0.0625 kg/ha), 0.0; in series [2] (0.1250 kg/ha), 0.0; in series [2] (0.2500 kg/ha) it was 2.0. In addition, the “herbicidal effect rating, ECHORC” value amounted to 6.0 in series [3] (0.0313 kg/ha), 7.0 in series [3] (0.0625 kg/ha), 9.0 in series [3] (0.1250 kg/ha) and 9.0 in series [3] (0.2500 kg/ha). Besides, the “herbicidal effect rating, ORYSAT” value worked out at 2.0 in series [4] (0.0313 kg/ha), 3.0 in series [4] (0.0625 kg/ha), 5.0 in series [4] (0.1250 kg/ha) and 6.0 in series [4] (0.2500 kg/ha). For the same molecule, the “herbicidal effect rating, CYPIR” value in the series with Cyperus iria (0.0313 kg/ha) was 2.0; in the series with Cyperus iria (0.0625 kg/ha), 4.0; in the series with Cyperus iria (0.1250 kg/ha), 6.0; in the series with Cyperus iria (0.2500 kg/ha), 9.0.

As for `CCc1ccc(OC(C)C(=O)OC)c(-c2nsc3ccc(-n4c(=O)cc(C(F)(F)F)n(C)c4=O)cc23)c1` (stereo not drawn) [Example 28, Methyl 2-{2-{5-[3,6-dihydro-3-methyl-2,6-dioxo-4-(trifluoromethyl)-1(2H)-pyrimidinyl]-1,2-benzisothiazol-3-yl}-4-ethylphenoxy}propionate], the “herbicidal effect rating, MOOVA” value in series [1] (0.0313 kg/ha) is given as 8.0; in series [1] (0.0625 kg/ha), 9.0; in series [1] (0.1250 kg/ha), 9.0; in series [1] (0.2500 kg/ha), 9.0. The “herbicidal effect rating, SAGPY” value in the series with Sagittaria pygmaea, L. (0.0313 kg/ha) turned out to be 0.0; in the series with Sagittaria pygmaea, L. (0.0625 kg/ha), 2.0; in the series on Sagittaria pygmaea, L. (0.1250 kg/ha) it was 4.0; in the series with Sagittaria pygmaea, L. (0.2500 kg/ha), 8.0. Further, the “herbicidal effect rating, CYPSE” value was found to be 0.0 in series [2] (0.0313 kg/ha), 0.0 in series [2] (0.0625 kg/ha), 0.0 in series [2] (0.1250 kg/ha) and 4.0 in series [2] (0.2500 kg/ha). In addition, the “herbicidal effect rating, ECHORC” value in series [3] (0.0313 kg/ha) is given as 8.0; in series [3] (0.0625 kg/ha), 9.0; in series [3] (0.1250 kg/ha) it was 9.0; in series [3] (0.2500 kg/ha), 9.0. Also, the “herbicidal effect rating, ORYSAT” value was 3.0 in series [4] (0.0313 kg/ha), 4.0 in series [4] (0.0625 kg/ha), 7.0 in series [4] (0.1250 kg/ha) and 9.0 in series [4] (0.2500 kg/ha). For the same molecule, the “herbicidal effect rating, CYPIR” value amounted to 2.0 with Cyperus iria (0.0313 kg/ha), 4.0 with Cyperus iria (0.0625 kg/ha), 6.0 in the series on Cyperus iria (0.1250 kg/ha) and 9.0 in the series on Cyperus iria (0.2500 kg/ha).

Values taken from EP0908457B1, “3-(1,2-benzisothiazol- and isoxazol-5-Y1)-2,4(1H,3H)-pyrimidinedione or thione and 3-(1,2-benzisothiazol- and isoxazol-5-y1)-4(3H)-pyrimidinone or thione herbicidal agents” (BASF AKTIENGESELLSCHAFT, priority 1997, dated 1999).
